# Tests used:
# [1] = tested on: NCI-H1155 (lung cancer cells); assay: CytoX cell viability assay in NCI-H1155 lung cancer cells; details: Homo sapiens, NCI-H1155, 72 h; for viability at 0.01 µM: read-out: NCI-H1155 (% viability) at 10 nM; for viability at 0.5 µM: read-out: NCI-H1155 (% viability) at 500 nM
# Method: (§1) The viability of NCI-H1155 (lung cancer cells) was measured using the CytoX cell viability assay kit (LPS Solution, #CYT3000). […] CytoX solution was then added to the cells and incubated for 1 hour.
# [2] = tested on: KG-1 cells; assay: Cytotoxicity assay (WST-1) in KG-1 cancer cells; format: cell-based; details: Homo sapiens, 72 hours
# Method: To evaluate the effects of the compounds of the present disclosure on cancer cells, a cytotoxicity assay was conducted as follows.
# Cancer cells (KG-1) were seeded at a density of 10,000 cells per well in 96-well plates. The compound of the present disclosure and control compounds (Comparative Compounds 1, 2, and 3) were treated at predetermined concentrations. After 72 hours, the cells were treated with WST-1 reagent for 1 hour. Then, absorbance was read at 450 nm using a SpectraMax spectrophotometer to determine cell viability.
# [3] = tested on: NCI-H1155 (lung cancer cells)
# Method: as §1
SMILES,viability at 0.01 µM [1] [%],viability at 0.5 µM [1] [%],IC50 [2] [µM],NCI-H1155 (% viability) at 10 nM ([3]; 0.01 µM) [%],NCI-H1155 (% viability) at 500 nM ([3]; 0.5 µM) [%]
"O=C1CCC(N2Cc3cc(CNC(=O)C4CCC4c4ccccc4)ccc3C2=O)C(=O)N1 (stereo not drawn) [Cpd. 14, N-((2-(2,6-dioxopiperidin-3-yl)-1-oxoisoindolin-5-yl)methyl)-2-phenylcyclobutane-1-carboxamide]",96,57,,,
"O=C1CCC(N2Cc3cc(CNC(=O)[C@@H]4C[C@H]4c4ccc(Cl)cc4)ccc3C2=O)C(=O)N1 (mixture of isomers) [Cpd. 5, (1R,2R)-2-(4-chlorophenyl)-N-((2-(2,6-dioxopiperidin-3-yl)-1-oxoisoindolin-5-yl)methyl)cyclopropane-1-carboxamide racemic mixture]",2,4,,,
"O=C1CCC(N2Cc3cc(CNC(=O)[C@@H]4C[C@H]4c4ccc(F)cc4)ccc3C2=O)C(=O)N1 (stereo partly drawn) [Cpd. 8, (1R,2R)—N-((2-(2,6-dioxopiperidin-3-yl)-1-oxoisoindolin-5-yl)methyl)-2-(4-fluorophenyl)cyclopropane-1-carboxamide]",48,26,,,
"O=C1CCC(N2Cc3cc(CNC(=O)[C@@H]4C[C@H]4c4ccc(Cl)cc4)ccc3C2=O)C(=O)N1 (stereo partly drawn) [Cpd. 3, (1R,2R)-2-(4-chlorophenyl)-N-((2-(2,6-dioxopiperidin-3-yl)-1-oxoisoindolin-5-yl)methyl)cyclopropane-1-carboxamide]",4,4,,,
"O=C1CCC(N2Cc3cc(CNC(=O)c4ccc5cc(Cl)ccc5n4)ccc3C2=O)C(=O)N1 (stereo not drawn) [Comparative Cpd. 3, 6-chloro-N-((2-(2,6-dioxopiperidin-3-yl)-1-oxoisoindolin-5-yl)methyl) quinoline-2-carboxamide]",,,4.1,,
"O=C1CCC(N2Cc3cc(CNC(=O)C(F)(F)c4ccc(Cl)cc4)ccc3C2=O)C(=O)N1 (stereo not drawn) [CC-90009 (Eragidomide), Eragidomide]",,,,85.0,23.25
"O=C1CCC(N2Cc3cc(CNC(=O)[C@@H]4C[C@H]4c4cccc(F)c4)ccc3C2=O)C(=O)N1 (stereo partly drawn) [Cpd. 9, (1R,2R)—N-((2-(2,6-dioxopiperidin-3-yl)-1-oxoisoindolin-5-yl)methyl)-2-(3-fluorophenyl)cyclopropane-1-carboxamide]",52,25,,,
"O=C1CCC(N2Cc3cc(CNC(=O)C4CC4c4ccc(Cl)cc4Cl)ccc3C2=O)C(=O)N1 (stereo not drawn) [Cpd. 13, 2-(2,4-dichlorophenyl)-N-((2-(2,6-dioxopiperidin-3-yl)-1-oxoisoindolin-5-yl)methyl)cyclopropane-1-carboxamide]",27,24,,,
"O=C1CCC(N2Cc3cc(CNC(=O)[C@@H]4C[C@H]4c4cccc(Cl)c4)ccc3C2=O)C(=O)N1 (stereo partly drawn) [Cpd. 6, (1R,2R)-2-(3-chlorophenyl)-N-((2-(2,6-dioxopiperidin-3-yl)-1-oxoisoindolin-5-yl)methyl)cyclopropane-1-carboxamide]",5,4,,,
"O=C1CCC(N2Cc3cc(CNC(=O)[C@H]4C[C@@H]4c4ccccc4)ccc3C2=O)C(=O)N1 (stereo partly drawn) [Cpd. 7, (1S,2S)—N-((2-(2,6-dioxopiperidin-3-yl)-1-oxoisoindolin-5-yl)methyl)-2-phenylcyclopropane-1-carboxamide]",3,4,,,
"Cc1ccc([C@H]2C[C@@H]2C(=O)NCc2ccc3c(c2)CN(C2CCC(=O)NC2=O)C3=O)cc1 (stereo partly drawn) [Cpd. 12, (1S,2S)—N-((2-(2,6-dioxopiperidin-3-yl)-1-oxoisoindolin-5-yl)methyl)-2-(p-tolyl)cyclopropane-1-carboxamide]",44,27,,,
"O=C1CCC(N2Cc3cc(CNC(=O)[C@H]4C[C@@H]4c4cccc(Cl)c4)ccc3C2=O)C(=O)N1 (stereo partly drawn) [Cpd. 10, (1S,2S)-2-(3-chlorophenyl)-N-((2-(2,6-dioxopiperidin-3-yl)-1-oxoisoindolin-5-yl)methyl)cyclopropane-1-carboxamide]",39,25,,,
"O=C1CCC(N2Cc3cc(CNC(=O)c4cc5ccccc5cn4)ccc3C2=O)C(=O)N1 (stereo not drawn) [Comparative Cpd. 1, N-((2-(2,6-dioxopiperidin-3-yl)-1-oxoisoindolin-5-yl)methyl) isoquinoline-3-carboxamide]",,,> 10,,
"O=C1CCC(N2Cc3cc(CNC(=O)[C@@H]4C[C@H]4c4ccccc4)ccc3C2=O)C(=O)N1 (stereo partly drawn) [Cpd. 1, (1R,2R)—N-((2-(2,6-dioxopiperidin-3-yl)-1-oxoisoindolin-5-yl)methyl)-2-phenylcyclopropane-1-carboxamide]",,,0.002,,
"O=C1CCC(N2Cc3cc(CNC(=O)C4CC4c4ccc(C(F)(F)F)cc4)ccc3C2=O)C(=O)N1 (stereo not drawn) [Cpd. 11, N-((2-(2,6-dioxopiperidin-3-yl)-1-oxoisoindolin-5-yl)methyl)-2-(4-(trifluoromethyl)phenyl)cyclopropane-1-carboxamide]",79,34,,,
"O=C1CCC(N2Cc3cc(CNC(=O)c4cnc5ccccc5n4)ccc3C2=O)C(=O)N1 (stereo not drawn) [Comparative Cpd. 2, N-((2-(2,6-dioxopiperidin-3-yl)-1-oxoisoindolin-5-yl)methyl)quinoxaline-2-carboxamide]",,,> 10,,
"O=C1CCC(N2Cc3cc(CNC(=O)[C@@H]4C[C@@H]4c4ccccc4)ccc3C2=O)C(=O)N1 (stereo partly drawn) [Cpd. 4, (1R,2S)—N-((2-(2,6-dioxopiperidin-3-yl)-1-oxoisoindolin-5-yl)methyl)-2-phenylcyclopropane-1-carboxamide]",94,95,,,

# Source: US20260174859A1, “ISOINDOLINONE DERIVATIVE HAVING ARYLCYCLOALKYLAMIDE STRUCTURE, AND USE THEREOF” (ONCORD BIO INC, priority 2022, published 2026)
